The target in this test is Human TrkA Protein (Homo sapiens (Human), UniProt P04629). Put plainly: Evaluation of Binding Activity for Human TrkA Protein (TrkA LanthaScreen Eu Kinase Binding Assay). The note with it: TrkA enzyme, Kinase Tracer 236, TR-FRET, 60 minutes at room temperature. How it is done: (Pharmacological Experimental Example 1): Evaluation of Binding Activity for Human TrkA Protein
Measurement was carried out using TrkA LanthaScreen (registered trademark) Eu Kinase Binding Assay (ThermoFisher SCIENTIFIC). To a 384 well plate (Corning), 2.5 μL of the test compound having various concentrations and diluted with Kinase buffer (ThermoFisher SCIENTIFIC) and 2.5 μL of 15 nM TrkA enzyme (ThermoFisher SCIENTIFIC) were added. Moreover, […] Eu-anti-His Tag antibody (ThermoFisher SCIENTIFIC) and 5 μL of 30 nM Kinase (registered trademark) Tracer 236 (ThermoFisher SCIENTIFIC) were added, followed by reaction at room temperature for 60 minutes. After the reaction, the fluorescence intensity of Europium (Emission wavelength 615 nm) and TR-FRET (Emission wavelength 665 nm) with an excitation wavelength of 340 nm were measured with EnVision 2100 (PerkinElmer) to calculate the fluorescence ratio as the amount of the test compound and the TrkA enzyme bonded. The inhibitory activity (IC50 value) of each test compound was calculated with the fluorescence ratio of the well to which a solvent was added instead of the test compound being 0% and the fluorescence ratio of the well without addition of the TrkA protein being 100%.
In Table 1, […] mean Compounds 1 to 62 synthesized in accordance with Examples 1 to 62 described later.
On the technique in general: Time-resolved FRET reads energy transfer from a long-lived donor to a nearby acceptor.

In US10399945B2, “Tetrahydronaphthyl urea derivative” (MOCHIDA PHARMACEUTICAL CO., LTD., priority 2017, dated 2019) one finds IC50 data, which are given here for 23 compounds.

Sequence of Human TrkA Protein (P04629 33-796): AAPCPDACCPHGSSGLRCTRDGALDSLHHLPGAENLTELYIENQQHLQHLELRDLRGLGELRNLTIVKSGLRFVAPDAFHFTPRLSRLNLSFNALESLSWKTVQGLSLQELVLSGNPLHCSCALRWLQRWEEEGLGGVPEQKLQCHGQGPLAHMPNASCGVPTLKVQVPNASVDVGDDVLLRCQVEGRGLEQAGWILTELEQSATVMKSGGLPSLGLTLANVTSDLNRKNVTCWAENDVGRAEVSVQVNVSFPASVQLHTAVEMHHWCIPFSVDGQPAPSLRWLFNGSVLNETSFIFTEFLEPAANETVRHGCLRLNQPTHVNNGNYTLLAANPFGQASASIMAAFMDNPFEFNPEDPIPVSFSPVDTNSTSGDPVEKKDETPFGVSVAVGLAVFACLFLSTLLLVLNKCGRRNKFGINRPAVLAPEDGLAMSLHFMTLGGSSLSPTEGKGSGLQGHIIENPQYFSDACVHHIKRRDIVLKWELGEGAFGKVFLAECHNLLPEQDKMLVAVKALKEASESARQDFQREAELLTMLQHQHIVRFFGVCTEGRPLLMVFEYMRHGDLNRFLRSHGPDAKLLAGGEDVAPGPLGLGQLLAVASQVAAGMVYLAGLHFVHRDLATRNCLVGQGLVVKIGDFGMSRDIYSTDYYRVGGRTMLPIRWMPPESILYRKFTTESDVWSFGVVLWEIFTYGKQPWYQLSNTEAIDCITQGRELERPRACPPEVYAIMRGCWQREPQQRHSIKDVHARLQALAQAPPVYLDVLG

A word on the IC50: it is the concentration that inhibits the measured activity by half. With `Cc1cc(-c2nc(-c3ccccc3)c(NC(=O)N[C@@H]3c4cc(F)c(F)cc4C(C)(C)C[C@H]3O)cc2C)cnn1` (racemic) [Compound 49, rac-1-((1R,2R)-6,7-difluoro-2-hydroxy-4,4-dimethyl-1,2,3,4-tetrahydronaphthalen-1-yl)-3-(5-methyl-6-(6-methylpyridazin-4-yl)-2-phenylpyridin-3-yl)urea], the IC50 was at most 50 nM.

For the compound `Cc1cc(NC(=O)N[C@@H]2c3cc(F)c(F)cc3C(C)(C)C[C@H]2O)c(C2CCOCC2)nc1C(N)=O` (racemic) [Compound 58, rac-5-(3-((1R,2R)-6,7-difluoro-2-hydroxy-4,4-dimethyl-1,2,3,4-tetrahydronaphthalen-1-yl)ureido)-3-methyl-6-(tetrahydro-2H-pyran-4-yl)picolinamide], the IC50 was 50 to 1000 nM.

`Cc1cnc(C2CCOCC2)c(NC(=O)N[C@@H]2c3cc(F)c(F)cc3C(C)(C)C[C@H]2O)c1` (racemic) [Compound 57, rac-1-((1R,2R)-6,7-difluoro-2-hydroxy-4,4-dimethyl-1,2,3,4-tetrahydronaphthalen-1-yl)-3-(5-methyl-2-(tetrahydro-2H-pyran-4-yl)pyridin-3-yl)urea] yielded an IC50 of 50 to 1000 nM.

With `Cc1cc(NC(=O)N[C@@H]2c3ccccc3C(C)(C)C[C@H]2O)c(-c2ccccc2)nc1-c1cncc(C(F)(F)F)c1` [Compound 11, 1-((1R,2R)-2-hydroxy-4,4-dimethyl-1,2,3,4-tetrahydronaphthalen-1-yl)-3-(3-methyl-6-phenyl-5′-(trifluoromethyl)-[2,3′-bipyridin]-5-yl)urea], the IC50 is at most 50 nM.

The compound `Cc1cc(NC(=O)N[C@@H]2c3cc(F)c(F)cc3C(C)(C)C[C@H]2O)c(-c2ccccc2)nc1C(N)=O` (racemic) [Compound 40, rac-5-(3-((1R,2R)-6,7-difluoro-2-hydroxy-4,4-dimethyl-1,2,3,4-tetrahydronaphthalen-1-yl)ureido)-3-methyl-6-phenylpicolinamide] had an IC50 of at most 50 nM.

With `Cc1ncc(-c2nc(-c3ccccc3)c(NC(=O)N[C@@H]3c4cc(F)c(F)cc4C(C)(C)C[C@H]3O)cc2C)s1` (racemic) [Compound 50, rac-1-((1R,2R)-6,7-difluoro-2-hydroxy-4,4-dimethyl-1,2,3,4-tetrahydronaphthalen-1-yl)-3-(5-methyl-6-(2-methylthiazol-5-yl)-2-phenylpyridin-3-yl)urea], the 50% inhibitory concentration (IC50) was 50 to 1000 nM.

For `Cc1ccc(NC(=O)N[C@@H]2c3cc(F)c(F)cc3C(C)(C)C[C@H]2O)c(-c2ccccc2)n1` (racemic) [Compound 39, rac-1-((1R,2R)-6,7-difluoro-2-hydroxy-4,4-dimethyl-1,2,3,4-tetrahydronaphthalen-1-yl)-3-(6-methyl-2-phenylpyridin-3-yl)urea], the IC50 was at most 50 nM.

In the case of `Cc1cc(NC(=O)N[C@@H]2c3cc(F)c(F)cc3C(C)(C)C[C@H]2O)c(C2CCOCC2)nc1-c1cn[nH]c1` (racemic) [Compound 61a], the IC50 is 50 to 1000 nM.

On to `Cc1ncc(-c2nc(-c3ccccc3)c(NC(=O)N[C@@H]3c4cc(F)c(F)cc4C(C)(C)C[C@H]3O)cc2C)cn1` (racemic) [Compound 44, rac-1-((1R,2R)-6,7-difluoro-2-hydroxy-4,4-dimethyl-1,2,3,4-tetrahydronaphthalen-1-yl)-3-(5-methyl-6-(2-methylpyrimidin-5-yl)-2-phenylpyridin-3-yl)urea], for which the IC50 was at most 50 nM.

`Cc1cc(NC(=O)N[C@@H]2c3ccccc3C(C)(C)C[C@H]2O)c(-c2ccccc2)nc1-c1ccc(O)nc1` (racemic) [Compound 6, rac-1-(6′-hydroxy-3-methyl-6-phenyl-[2,3′-bipyridin]-5-yl)-3-((1R,2R)-2-hydroxy-4,4-dimethyl-1,2,3,4-tetrahydronaphthalen-1-yl)urea] had an IC50 of at most 50 nM.

Regarding `Cc1cc(NC(=O)N[C@@H]2c3ccc(Br)cc3C(C)(C)C[C@H]2O)c(-c2ccccc2)nc1C(N)=O` (racemic) [Compound 23, rac-5-(3-((1R,2R)-6-bromo-2-hydroxy-4,4-dimethyl-1,2,3,4-tetrahydronaphthalen-1-yl)ureido)-3-methyl-6-phenylpicolinamide], the IC50 was at most 50 nM.

For `Cc1ncc(-c2nc(-c3ccccc3)c(NC(=O)N[C@@H]3c4ccc(F)cc4C(C)(C)C[C@H]3O)cc2C)cn1` (racemic) [Compound 35a], the IC50 was at most 50 nM.

Take `Cc1cc(NC(=O)N[C@@H]2c3ccccc3C(C)(C)C[C@H]2O)c(-c2ccccc2)nc1-c1cnc(C(F)(F)F)nc1` [Compound 15, 1-((1R,2R)-2-hydroxy-4,4-dimethyl-1,2,3,4-tetrahydronaphthalen-1-yl)-3-(5-methyl-2-phenyl-6-(2-(trifluoromethyl)pyrimidin-5-yl)pyridin-3-yl)urea]: the IC50 was at most 50 nM.

`Cc1cc(NC(=O)N[C@@H]2c3ccccc3C(C)(C)C[C@H]2O)c(-c2ccccc2)nc1-c1cn[nH]c1` (racemic) [Compound 5, rac-1-((1R,2R)-2-hydroxy-4,4-dimethyl-1,2,3,4-tetrahydronaphthalen-1-yl)-3-(5-methyl-6-(1H-pyrazol-4-yl)-2-phenylpyridin-3-yl)urea] registered an IC50 of at most 50 nM.

`Cc1cc(NC(=O)N[C@@H]2c3ccccc3C(C)(C)C[C@H]2O)c(-c2ccccc2)nc1-c1cn[nH]c1` [Compound 18, 1-((1R,2R)-2-hydroxy-4,4-dimethyl-1,2,3,4-tetrahydronaphthalen-1-yl)-3-(5-methyl-2-phenyl-6-(1H-pyrazol-4-yl)pyridin-3-yl)urea] came in with an IC50 of at most 50 nM.

As to `Cc1cnc(-c2ccccc2)c(NC(=O)N[C@@H]2c3cc(Br)ccc3C(C)(C)C[C@H]2O)c1` (racemic) [Compound 32, rac-1-((1R,2R)-7-bromo-2-hydroxy-4,4-dimethyl-1,2,3,4-tetrahydronaphthalen-1-yl)-3-(5-methyl-2-phenylpyridin-3-yl)urea], the IC50 was at most 50 nM.

As to `Cc1cc(NC(=O)N[C@@H]2c3cc(F)c(F)cc3C(C)(C)C[C@H]2O)c(C2CCOCC2)nc1-c1cn[nH]c1` (racemic) [Compound 61, rac-1-((1R,2R)-6,7-difluoro-2-hydroxy-4,4-dimethyl-1,2,3,4-tetrahydronaphthalen-1-yl)-3-(5-methyl-6-(1H-pyrazol-4-yl)-2-(tetrahydro-2H-pyran-4-yl)pyridin-3-yl)urea], the IC50 lay within 50 to 1000 nM.

Compound `Cc1cc(NC(=O)N[C@@H]2c3cc(F)c(F)cc3C(C)(C)C[C@H]2O)c(-c2ccccc2)nc1-c1cn[nH]c1` (racemic) [Compound 53, rac-1-((1R,2R)-6,7-difluoro-2-hydroxy-4,4-dimethyl-1,2,3,4-tetrahydronaphthalen-1-yl)-3-(5-methyl-2-phenyl-6-(1H-pyrazol-4-yl)pyridin-3-yl)urea] came in with an IC50 of at most 50 nM.

`CC1(C)C[C@@H](O)[C@H](NC(=O)Nc2cccnc2-c2ccccc2)c2ccccc21` (racemic) [Compound 1, rac-1-((1R,2R)-2-hydroxy-4,4-dimethyl-1,2,3,4-tetrahydronaphthalen-1-yl)-3-(2-phenylpyridin-3-yl)urea]: the half-maximal inhibitory concentration (IC50) was at most 50 nM.

`Cc1cc(NC(=O)N[C@@H]2c3cc(F)c(F)cc3C(C)(C)C[C@H]2O)c(-c2ccccc2)nc1CO` (racemic) [Compound 43, rac-1-((1R,2R)-6,7-difluoro-2-hydroxy-4,4-dimethyl-1,2,3,4-tetrahydronaphthalen-1-yl)-3-(6-(hydroxymethyl)-5-methyl-2-phenylpyridin-3-yl)urea] gave an IC50 of at most 50 nM.

Consider `Cc1cc(NC(=O)N[C@@H]2c3cc(F)c(F)cc3C(C)(C)C[C@H]2O)c(-c2ccccc2)nc1-c1cccc(C#N)c1` (racemic) [Compound 47, rac-1-(6-(3-cyanophenyl)-5-methyl-2-phenylpyridin-3-yl)-3-((1R,2R)-6,7-difluoro-2-hydroxy-4,4-dimethyl-1,2,3,4-tetrahydronaphthalen-1-yl)urea], for which the concentration for half-maximal inhibition (IC50) was at most 50 nM.

As for `Cc1cc(NC(=O)N[C@@H]2c3ccccc3C(C)(C)C[C@H]2O)c(C2CCOCC2)nc1-c1cnn(C)c1` (racemic) [Compound 29, rac-1-((1R,2R)-2-hydroxy-4,4-dimethyl-1,2,3,4-tetrahydronaphthalen-1-yl)-3-(5-methyl-6-(1-methyl-1H-pyrazol-4-yl)-2-(tetrahydro-2H-pyran-4-yl)pyridin-3-yl)urea], the IC50 is at most 50 nM.

`Cc1cnc(-c2ccccc2)c(NC(=O)N[C@@H]2c3cc(F)c(F)cc3C(C)(C)C[C@H]2O)c1` (racemic) [Compound 37a] yielded an IC50 of at most 50 nM.
